Measurements as given in patent US5444071A, “Quinoline derivatives and use thereof as angiotensin II antagonists” (Imperial Chemical Industries PLC, priority 1989, dated 1995).

System: angiotensin II-induced pressor responses
Experiment: Test C: antagonism of angiotensin II-induced pressor responses in rats
Assay type: in vivo
Conditions: iv, rat, i.v. administration
Description: The antagonism of one or more of the physiological actions of AII and, in particular, the antagonism of the interaction of AII with the receptors which mediate its effects on a target tissue, may be assessed using one or more of the following, routine laboratory procedures: Test C: This in vivo test involves using terminally-anaesthetised or conscious rats in which an arterial catheter has been implanted under anaesthesia for the measurement of changes in blood pressure. The AII antagonistic effects of the test compound following oral or parenteral administration, are assessed against angiotensin II-induced pressor responses. To ensure that the effect is specific, the effect of the test compound on vasopressin-induced pressor responses may also be determined in the same preparation.

`Cc1cc(OCc2ccc(-c3ccccc3-c3nnn[nH]3)cc2)c2ccccc2n1.Cl` [Example 7, 2-methyl-4-[(2'-(1H-tetrazol-5-yl)biphenyl-4-yl)methoxy]quinoline hydrochloride] gave an ED50 of 0.5 mg/kg.
